# Results taken from publication PMC5218480 (PLoS ONE, 2017).
# Tested on: MV-4-11 cells
# Test: Gene expression microarray analysis (Affymetrix PrimeView) and GSEA
# Assay type: cell-based, human
# Parameters: RFU PODN (11730768_x_at) / Fold change /veh PODN (11730768_x_at) / RFU LINC00158 (11744669_a_at) / Fold change /veh LINC00158 (11744669_a_at) / RFU DUSP10 (11751237_a_at) / Fold change /veh DUSP10 (11751237_a_at) / RFU ID3 (11757404_x_at) / Fold change /veh ID3 (11757404_x_at) / RFU PLEKHG5 (11737974_s_at) / Fold change /veh PLEKHG5 (11737974_s_at) / RFU LRRC4B (11730491_at) / Fold change /veh LRRC4B (11730491_at) / RFU GIMAP4 (11747438_a_at) / Fold change /veh GIMAP4 (11747438_a_at) / RFU KRT8 (11758183_x_at) / Fold change /veh KRT8 (11758183_x_at) / RFU CNN1 (11734310_a_at) / Fold change /veh CNN1 (11734310_a_at) / RFU VPS37D (11726825_at) / Fold change /veh VPS37D (11726825_at) / RFU C10orf10 (11716522_x_at) / Fold change /veh C10orf10 (11716522_x_at) / RFU KIR2DL2 /// KIR2DL4 /// KIR2DL5A /// KIR2DL5B /// KIR2DS1 /// KIR2DS2 /// KIR2DS3 /// KIR2DS4 /// KIR3DL3 /// KIR3DL3 /// KIR3DS1 (11738374_at) / Fold change /veh KIR2DL2 /// KIR2DL4 /// KIR2DL5A /// KIR2DL5B /// KIR2DS1 /// KIR2DS2 /// KIR2DS3 /// KIR2DS4 /// KIR3DL3 /// KIR3DL3 /// KIR3DS1 (11738374_at) / RFU C1QL1 (11718748_at) / Fold change /veh C1QL1 (11718748_at) / RFU TMPRSS4 (11747572_a_at) / Fold change /veh TMPRSS4 (11747572_a_at) / RFU HAMP (11756126_x_at) / Fold change /veh HAMP (11756126_x_at) / RFU RNFT2 (11725882_a_at) / Fold change /veh RNFT2 (11725882_a_at) / RFU NR4A2 (11747474_a_at) / Fold change /veh NR4A2 (11747474_a_at) / RFU ABCC12 (11746883_a_at) / Fold change /veh ABCC12 (11746883_a_at) / RFU TMEM136 (11760407_x_at) / Fold change /veh TMEM136 (11760407_x_at) / RFU CLDN22 /// WWC2 (11732394_at) / Fold change /veh CLDN22 /// WWC2 (11732394_at) / RFU HLA-DPB1 (11760878_x_at) / Fold change /veh HLA-DPB1 (11760878_x_at) / RFU SPINT1 (11716480_a_at) / Fold change /veh SPINT1 (11716480_a_at) / RFU GAP43 (11754022_s_at) / Fold change /veh GAP43 (11754022_s_at) / RFU A4GNT (11735810_at) / Fold change /veh A4GNT (11735810_at) / RFU PRB3 (11715151_x_at) / Fold change /veh PRB3 (11715151_x_at) / RFU TUBB4B (11761932_at) / Fold change /veh TUBB4B (11761932_at) / RFU CAPN14 (11732068_a_at) / Fold change /veh CAPN14 (11732068_a_at) / RFU TMCC2 (11721928_a_at) / Fold change /veh TMCC2 (11721928_a_at) / RFU IRGQ (11745062_a_at) / Fold change /veh IRGQ (11745062_a_at) / RFU FAM174B (11720279_a_at) / Fold change /veh FAM174B (11720279_a_at) / RFU TMPRSS4 (11748680_a_at) / Fold change /veh TMPRSS4 (11748680_a_at) / RFU FAM212B (11763350_a_at) / Fold change /veh FAM212B (11763350_a_at) / RFU PLEKHG5 (11743358_a_at) / Fold change /veh PLEKHG5 (11743358_a_at) / RFU ZSCAN30 (11745921_a_at) / Fold change /veh ZSCAN30 (11745921_a_at) / RFU CMKLR1 (11741424_a_at) / Fold change /veh CMKLR1 (11741424_a_at) / RFU LOC101060620 /// MAPK8IP1 (11723275_at) / Fold change /veh LOC101060620 /// MAPK8IP1 (11723275_at) / RFU SPTSSB (11747773_x_at) / Fold change /veh SPTSSB (11747773_x_at) / RFU PRSS12 (11739890_at) / Fold change /veh PRSS12 (11739890_at) / RFU BIN1 (11741810_x_at) / Fold change /veh BIN1 (11741810_x_at) / RFU WNT11 (11732464_a_at) / Fold change /veh WNT11 (11732464_a_at) / RFU C10orf10 (11716521_a_at) / Fold change /veh C10orf10 (11716521_a_at) / RFU C5orf56 (11738089_at) / Fold change /veh C5orf56 (11738089_at) / RFU CYB561 (11721691_x_at) / Fold change /veh CYB561 (11721691_x_at) / RFU ANKRD19P (11752326_a_at) / Fold change /veh ANKRD19P (11752326_a_at) / RFU OR2T12 /// OR2T33 /// OR2T8 (11738714_s_at) / Fold change /veh OR2T12 /// OR2T33 /// OR2T8 (11738714_s_at) / RFU VCAN (11748164_a_at) / Fold change /veh VCAN (11748164_a_at) / RFU JSRP1 (11732532_at) / Fold change /veh JSRP1 (11732532_at) / RFU KRTAP10-11 (11738290_x_at) / Fold change /veh KRTAP10-11 (11738290_x_at) / RFU MYO3A (11730013_a_at) / Fold change /veh MYO3A (11730013_a_at) / RFU EBF3 (11725865_a_at) / Fold change /veh EBF3 (11725865_a_at) / RFU CAMK2N1 (11719241_x_at) / Fold change /veh CAMK2N1 (11719241_x_at) / RFU C5orf56 (11738088_a_at) / Fold change /veh C5orf56 (11738088_a_at) / RFU OLFML3 (11715873_a_at) / Fold change /veh OLFML3 (11715873_a_at) / RFU LOC100653217 /// NTM (11731650_a_at) / Fold change /veh LOC100653217 /// NTM (11731650_a_at) / RFU MAPK11 (11762145_a_at) / Fold change /veh MAPK11 (11762145_a_at) / RFU FIZ1 (11724087_x_at) / Fold change /veh FIZ1 (11724087_x_at) / RFU OASL (11726364_x_at) / Fold change /veh OASL (11726364_x_at) / RFU SOX15 (11748057_x_at) / Fold change /veh SOX15 (11748057_x_at) / RFU CD79A (11719716_a_at) / Fold change /veh CD79A (11719716_a_at) / RFU HIST1H1D (11736915_at) / Fold change /veh HIST1H1D (11736915_at) / RFU CASKIN2 (11723855_a_at) / Fold change /veh CASKIN2 (11723855_a_at) / RFU LOC730098 (11760151_x_at) / Fold change /veh LOC730098 (11760151_x_at) / RFU OR4N2 (11742367_at) / Fold change /veh OR4N2 (11742367_at) / RFU PRRT2 (11749266_a_at) / Fold change /veh PRRT2 (11749266_a_at) / RFU SNX32 (11753110_a_at) / Fold change /veh SNX32 (11753110_a_at) / RFU CDHR5 (11726645_a_at) / Fold change /veh CDHR5 (11726645_a_at) / RFU RCAN1 (11760418_a_at) / Fold change /veh RCAN1 (11760418_a_at) / RFU FAM167A (11723789_a_at) / Fold change /veh FAM167A (11723789_a_at) / RFU FAM26E (11764081_at) / Fold change /veh FAM26E (11764081_at) / RFU ISYNA1 (11749810_s_at) / Fold change /veh ISYNA1 (11749810_s_at) / RFU ACY1 (11761880_at) / Fold change /veh ACY1 (11761880_at) / RFU 11764098_at / Fold change /veh 11764098_at / RFU SAMD14 (11745864_x_at) / Fold change /veh SAMD14 (11745864_x_at) / RFU NPB (11741838_a_at) / Fold change /veh NPB (11741838_a_at) / RFU TMPRSS6 (11731388_a_at) / Fold change /veh TMPRSS6 (11731388_a_at) / RFU KRTAP10-2 (11738614_at) / Fold change /veh KRTAP10-2 (11738614_at) / RFU ARHGAP8 /// PRR5-ARHGAP8 (11727945_x_at) / Fold change /veh ARHGAP8 /// PRR5-ARHGAP8 (11727945_x_at) / RFU KRTAP5-7 /// NADSYN1 (11734609_at) / Fold change /veh KRTAP5-7 /// NADSYN1 (11734609_at) / RFU RASL12 (11751679_a_at) / Fold change /veh RASL12 (11751679_a_at) / RFU CDKN2B (11736163_a_at) / Fold change /veh CDKN2B (11736163_a_at) / RFU PRF1 (11729649_at) / Fold change /veh PRF1 (11729649_at) / RFU, ZNF638 /// ZNF638-IT1 / Fold change vs veh, ZNF638 /// ZNF638-IT1 / RFU, PANK3 / Fold change vs veh, PANK3 / RFU, SH3YL1 / Fold change vs veh, SH3YL1 / RFU, ZEB2 / Fold change vs veh, ZEB2 / RFU, NRIP1 / Fold change vs veh, NRIP1 / RFU, PTTG1IP / Fold change vs veh, PTTG1IP / RFU, CAPN2 / Fold change vs veh, CAPN2 / RFU, MED14 / Fold change vs veh, MED14 / RFU, SNORA58 / Fold change vs veh, SNORA58 / RFU, C1orf63 / Fold change vs veh, C1orf63 / RFU, LRRFIP1 / Fold change vs veh, LRRFIP1 / RFU, NDUFAF7 / Fold change vs veh, NDUFAF7 / RFU, SLC12A2 / Fold change vs veh, SLC12A2 / RFU, IBTK / Fold change vs veh, IBTK / RFU, ESF1 / Fold change vs veh, ESF1 / Fold change vs veh, TMEM50B / RFU, TAOK1 / Fold change vs veh, TAOK1 / RFU, ACBD3 / Fold change vs veh, ACBD3 / RFU, TMA16 / Fold change vs veh, TMA16 / RFU, RWDD3 / Fold change vs veh, RWDD3 / RFU, BCAT1 / Fold change vs veh, BCAT1 / RFU, EDEM3 / Fold change vs veh, EDEM3 / RFU, TMEM33 / Fold change vs veh, TMEM33 / RFU, WDR75 / Fold change vs veh, WDR75 / RFU, AHCTF1 / Fold change vs veh, AHCTF1 / RFU, TFRC / Fold change vs veh, TFRC / RFU, ZDHHC17 / Fold change vs veh, ZDHHC17 / RFU, NOM1 / Fold change vs veh, NOM1 / RFU, ARL8B / Fold change vs veh, ARL8B / RFU, ZBTB11 / Fold change vs veh, ZBTB11 / RFU, TAMM41 / Fold change vs veh, TAMM41 / RFU, KIAA1704 /// LOC100996395 / Fold change vs veh, KIAA1704 /// LOC100996395 / RFU, ING1 / Fold change vs veh, ING1 / RFU, TRMT61B / Fold change vs veh, TRMT61B / RFU, FUBP3 / Fold change vs veh, FUBP3 / RFU, TP53 / Fold change vs veh, TP53 / RFU, TNKS2 / Fold change vs veh, TNKS2 / RFU, ZFP14 / Fold change vs veh, ZFP14 / RFU, ACTR2 / Fold change vs veh, ACTR2 / RFU, PPP3R1 / Fold change vs veh, PPP3R1 / RFU, PIK3R1 / Fold change vs veh, PIK3R1 / RFU, HNRNPA1 / Fold change vs veh, HNRNPA1 / RFU, RNF170 / Fold change vs veh, RNF170 / RFU, ZNF28 / Fold change vs veh, ZNF28 / RFU, RNGTT / Fold change vs veh, RNGTT / RFU, OGT / Fold change vs veh, OGT / RFU, BRD1 / Fold change vs veh, BRD1 / RFU, MARS / Fold change vs veh, MARS / RFU, ZNF655 / Fold change vs veh, ZNF655 / RFU, FAHD1 / Fold change vs veh, FAHD1 / RFU, BDP1 / Fold change vs veh, BDP1 / RFU, LRRCC1 / Fold change vs veh, LRRCC1 / RFU, ARID1A / Fold change vs veh, ARID1A / RFU, ZNF146 / Fold change vs veh, ZNF146 / RFU, ZNF330 / Fold change vs veh, ZNF330 / RFU, GPN3 / Fold change vs veh, GPN3 / RFU, C9orf123 / Fold change vs veh, C9orf123 / RFU, N4BP2L2 / Fold change vs veh, N4BP2L2 / RFU, ARFIP1 / Fold change vs veh, ARFIP1 / RFU, FAM179B / Fold change vs veh, FAM179B / RFU, BCL10 / Fold change vs veh, BCL10 / RFU, UHRF1BP1L / Fold change vs veh, UHRF1BP1L / RFU, BET1 / Fold change vs veh, BET1 / RFU, CNOT2 / Fold change vs veh, CNOT2 / RFU, ZNF268 / Fold change vs veh, ZNF268 / Fold change vs veh, ZNF507 / RFU, DGCR2 / Fold change vs veh, DGCR2 / RFU, WDSUB1 / Fold change vs veh, WDSUB1 / Fold change vs veh, HSP90B1 /// MIR3652 / RFU, ADSS / Fold change vs veh, ADSS / RFU, GK / Fold change vs veh, GK / RFU, ZNF148 / Fold change vs veh, ZNF148 / RFU, TAF9 / Fold change vs veh, TAF9 / RFU, SLC1A5 / Fold change vs veh, SLC1A5 / RFU, SLMO2 / Fold change vs veh, SLMO2 / RFU, ABCC4 / Fold change vs veh, ABCC4 / RFU, LOC101060439 /// RAP1B / Fold change vs veh, LOC101060439 /// RAP1B / RFU, RFX7 / Fold change vs veh, RFX7 / RFU, GTPBP10 / Fold change vs veh, GTPBP10 / RFU, CNEP1R1 / Fold change vs veh, CNEP1R1 / RFU, BIVM-ERCC5 /// ERCC5 / Fold change vs veh, BIVM-ERCC5 /// ERCC5 / RFU, ILF3 / Fold change vs veh, ILF3 / RFU 11762660_at / Fold change /veh 11762660_at / RFU VCAN (11757783_s_at) / Fold change /veh VCAN (11757783_s_at) / RFU DDX43 (11728927_at) / Fold change /veh DDX43 (11728927_at) / RFU KRT8 (11758188_x_at) / Fold change /veh KRT8 (11758188_x_at) / RFU NKD1 (11759106_at) / Fold change /veh NKD1 (11759106_at) / RFU SRD5A1 (11742802_a_at) / Fold change /veh SRD5A1 (11742802_a_at) / RFU TPSAB1 /// TPSB2 (11721975_s_at) / Fold change /veh TPSAB1 /// TPSB2 (11721975_s_at) / RFU GSTM3 (11746129_a_at) / Fold change /veh GSTM3 (11746129_a_at) / RFU IL23R (11737362_x_at) / Fold change /veh IL23R (11737362_x_at) / RFU TMEM51 (11727254_a_at) / Fold change /veh TMEM51 (11727254_a_at) / RFU PIWIL2 (11732686_x_at) / Fold change /veh PIWIL2 (11732686_x_at) / RFU ORM1 (11744905_x_at) / Fold change /veh ORM1 (11744905_x_at) / RFU CCDC152 (11743942_at) / Fold change /veh CCDC152 (11743942_at) / RFU ECM1 (11717891_a_at) / Fold change /veh ECM1 (11717891_a_at) / RFU IL23R (11748794_a_at) / Fold change /veh IL23R (11748794_a_at) / RFU TNFAIP8L3 (11732012_x_at) / Fold change /veh TNFAIP8L3 (11732012_x_at) / RFU MBOAT4 (11741988_at) / Fold change /veh MBOAT4 (11741988_at) / RFU 11764193_at / Fold change /veh 11764193_at / RFU TMEM53 (11763286_at) / Fold change /veh TMEM53 (11763286_at) / RFU MAGEB2 (11727129_at) / Fold change /veh MAGEB2 (11727129_at) / RFU TMEM200A (11744735_a_at) / Fold change /veh TMEM200A (11744735_a_at) / RFU CCDC152 (11751479_a_at) / Fold change /veh CCDC152 (11751479_a_at) / RFU FAM211A (11726209_a_at) / Fold change /veh FAM211A (11726209_a_at) / RFU RGS16 (11746705_a_at) / Fold change /veh RGS16 (11746705_a_at) / RFU VCAN (11755009_s_at) / Fold change /veh VCAN (11755009_s_at) / RFU RHOB (11743442_s_at) / Fold change /veh RHOB (11743442_s_at) / RFU RGS16 (11720943_a_at) / Fold change /veh RGS16 (11720943_a_at) / RFU RGS16 (11720944_at) / Fold change /veh RGS16 (11720944_at) / RFU, VPS4B / Fold change vs veh, VPS4B / RFU, CREB1 / Fold change vs veh, CREB1 / RFU, DNAJC13 / Fold change vs veh, DNAJC13 / RFU, GNAQ / Fold change vs veh, GNAQ / RFU, CDK5R1 / Fold change vs veh, CDK5R1 / RFU, ZRANB3 / Fold change vs veh, ZRANB3 / RFU, CUL4A / Fold change vs veh, CUL4A / RFU, CCNY / Fold change vs veh, CCNY / RFU, UFL1 / Fold change vs veh, UFL1 / RFU, COG3 / Fold change vs veh, COG3 / RFU, DIAPH2 / Fold change vs veh, DIAPH2 / RFU, SKA2 / Fold change vs veh, SKA2 / RFU, AFF3 / Fold change vs veh, AFF3 / RFU, LMF1 / Fold change vs veh, LMF1 / RFU, IPO11 / Fold change vs veh, IPO11 / RFU, DFFB / Fold change vs veh, DFFB / RFU, FOXP1 / Fold change vs veh, FOXP1 / RFU, CARD8 / Fold change vs veh, CARD8 / RFU, STRN3 / Fold change vs veh, STRN3 / RFU, ADK / Fold change vs veh, ADK / RFU, RASSF2 / Fold change vs veh, RASSF2 / RFU, WIPF1 / Fold change vs veh, WIPF1 / RFU, LARP1B / Fold change vs veh, LARP1B / RFU, RASA1 / Fold change vs veh, RASA1 / RFU, RB1 / Fold change vs veh, RB1 / RFU, PPFIA1 / Fold change vs veh, PPFIA1 / RFU, MAT2A / Fold change vs veh, MAT2A / RFU, CCT5 / Fold change vs veh, CCT5 / RFU, WDR92 / Fold change vs veh, WDR92 / RFU, CUX1 / Fold change vs veh, CUX1 / RFU, TTC7A / Fold change vs veh, TTC7A / RFU, TMEM135 / Fold change vs veh, TMEM135 / RFU, DEPTOR / Fold change vs veh, DEPTOR / RFU, CPM / Fold change vs veh, CPM / RFU, DNAJB6 / Fold change vs veh, DNAJB6 / RFU, CACNA2D3 / Fold change vs veh, CACNA2D3 / RFU, DTX4 / Fold change vs veh, DTX4 / RFU, TFCP2 / Fold change vs veh, TFCP2 / RFU, GMCL1 /// GMCL1P1 / Fold change vs veh, GMCL1 /// GMCL1P1 / RFU, AEBP2 / Fold change vs veh, AEBP2 / RFU, SNHG1 /// SNORD22 /// SNORD25 /// SNORD26 /// SNORD27 /// SNORD28 /// SNORD29 /// SNORD31 / Fold change vs veh, SNHG1 /// SNORD22 /// SNORD25 /// SNORD26 /// SNORD27 /// SNORD28 /// SNORD29 /// SNORD31 / Fold change (Aza/veh), C12orf56 (ProbeSet 11735607_a_at) / Fold change (ACY-1035/veh), C12orf56 (ProbeSet 11735607_a_at) / Fold change (Aza/veh), FGFR1OP (ProbeSet 11751329_s_at) / Fold change (ACY-1035/veh), FGFR1OP (ProbeSet 11751329_s_at) / Fold change (Aza/veh), VPS36 (ProbeSet 11739960_a_at) / Fold change (ACY-1035/veh), VPS36 (ProbeSet 11739960_a_at) / RFU SYPL1 (11715823_x_at) / Fold change /veh SYPL1 (11715823_x_at) / RFU IGFBP7 (11715501_s_at) / Fold change /veh IGFBP7 (11715501_s_at) / RFU REEP3 (11722064_at) / Fold change /veh REEP3 (11722064_at) / RFU IGLL1 (11728026_x_at) / Fold change /veh IGLL1 (11728026_x_at): dose or concentration left out as unconfirmed
# Settings: MV-4-11 cells, 48 hours
structure (smiles),measurement,value
Nc1ccc(-c2cccs2)cc1NC(=O)c1ccc2c(c1)cc(C1CC1)n2CCN1CCOCC1 [ACY-1035],Fold change /veh IL23R (11737362_x_at),1.14
